Measured values as given in publication PMC6896446, “Design, synthesis and molecular modelling studies of some pyrazole derivatives as carbonic anhydrase inhibitors” (Journal of Enzyme Inhibition and Medicinal Chemistry, 2019).
Read-outs that look alike come from different tables or passages of the source.

Columns and labels:
[1] = biological target: T1, hCA II (Homo sapiens, UniProt P00918); assay: hCA II inhibition, esterase activity method (4-nitrophenylacetate); format: biochemical
T1 construct: The hCA I and II isoenzymes used here were purified from human blood as previously described; from tissue; host or cells: human blood
Description: Different inhibitor concentrations were used and all compounds were tested in triplicate at each concentration used.
Human CA I and II isozymes were purified by one step chromatography technique and the activity of the effluents was determined by the hydratase method, using CO2 as substrate and further kinetic studies were performed using the esterase activity method, using 4-nitrophenyl acetate (NPA) as substrate.[21]

[2] = biological target: T2, hCA I (Homo sapiens, UniProt P00915); assay: hCA I inhibition, esterase activity method (4-nitrophenylacetate); format: biochemical; conditions: for IC50: against hCA I
T2 construct: The hCA I and II isoenzymes used here were purified from human blood as previously described; from tissue; host or cells: human blood
Description: The enzymatic reaction contained 1.4 ml 0.05 M Tris-SO4 buffer (pH 7.4), 1 ml 3 mM 4-nitrophenylacetate, 0.5 ml H2O and 0.1 ml enzyme solution, in a total volume of 3.0 ml.[24] […] Different inhibitor concentrations were used and all compounds were tested in triplicate at each concentration used. […] An Activity% – [Inhibitor] graph was drawn for each inhibitor.[25] […] The catalytic activity of these enzymes was calculated from Lineweaver-Burk plots, as reported previously, and represent the mean from at least three different determinations.
The inhibitory effects of all the synthesised compounds were investigated for the first time against hCA isozymes: hCA I and hCA II. Human CA I and II isozymes were purified by one step chromatography technique and the activity of the effluents was determined by the hydratase method, using CO2 as substrate and further kinetic studies were performed using the esterase activity method, using 4-nitrophenyl acetate (NPA) as substrate.[21]

[3] = esterase method, 4-nitrophenylacetate, pH 7.4, 25 °C, mean from at least three determinations, read-out: Ki hCA I
[4] = esterase method, 4-nitrophenylacetate, pH 7.4, 25 °C, mean from at least three determinations, read-out: Ki hCA II

T2 sequence (P00915 whole entry): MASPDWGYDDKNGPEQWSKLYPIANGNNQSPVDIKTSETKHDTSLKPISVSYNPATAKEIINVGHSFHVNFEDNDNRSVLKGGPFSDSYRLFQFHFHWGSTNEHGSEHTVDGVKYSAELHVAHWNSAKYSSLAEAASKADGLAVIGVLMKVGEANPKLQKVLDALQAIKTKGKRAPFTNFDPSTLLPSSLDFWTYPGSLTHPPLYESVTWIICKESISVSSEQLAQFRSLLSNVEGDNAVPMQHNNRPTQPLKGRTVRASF

SMILES	Ki [2, 3] [nM]	Ki [1, 4] [nM]	other results
COc1cc(/C=C/C(=O)c2ccc(N)cc2)cc(OC)c1OC [Compound 1, (E)-1-(4-aminophenyl)-3-(3,4,5-trimethoxyphenyl)prop-2-en-1-one]			Ki [1]: 33.8 nM
COc1cc(/C=C/C(=O)c2ccc(C)cc2)cc(OC)c1OC [Compound 3, (E)-1-p-tolyl-3-(3,4,5-trimethoxyphenyl)prop-2-en-1-one]	16.9	67.4	
COc1ccc(C2CC(c3ccc(N)cc3)=NN2C(N)=S)cc1OC (stereo not drawn) [Compound 9, 3-(4-Aminophenyl)-5-(3,4-dimethoxyphenyl)-4,5-dihydro-1H-pyrazole-1-carbothioamide]		20.4	Ki [2]: 5.13 nM
COc1cc(C2CC(c3ccc(N)cc3)=NN2C(N)=S)cc(OC)c1OC (stereo not drawn) [Compound 6, 3-(4-Aminophenyl)-5-(3,4,5-trimethoxyphenyl)-4,5-dihydro-1H-pyrazole-1-carbothioamide]	12.2		IC50 [2]: 23.9 to 24.4 nM
COc1cc(/C=C/C(=O)c2ccc(Br)cc2)cc(OC)c1OC [Compound 2, (E)-1-(4-bromophenyl)-3-(3,4,5-trimethoxyphenyl)prop-2-en-1-one]	8.03	17.1	
CN(C)c1ccc(/C=C/C(=O)c2ccc(O)cc2)cc1 [Compound 5, (E)-3-(4-(dimethylamino)phenyl)-1-(4-hydroxyphenyl)prop-2-en-1-one]			Ki [2]: 8.28 nM; Ki [1]: 11.8 nM
COc1ccc(/C=C/C(=O)c2ccc(N)cc2)cc1OC [Compound 4, (E)-1-(4-aminophenyl)-3-(3,4-dimethoxyphenyl)prop-2-en-1-one]	9.71	21.5	

Second part, led by results:

Ki [2, 3] [nM]	Ki [1, 4] [nM]	SMILES	other results
11	26.1	COc1cc(C2CC(c3ccc(C)cc3)=NN2C(N)=S)cc(OC)c1OC (stereo not drawn) [Compound 8, 3-p-Tolyl-5-(3,4,5-trimethoxyphenyl)-4,5-dihydro-1H-pyrazole-1-carbothioamide]	
12.6		COc1cc(C2CC(c3ccc(Br)cc3)=NN2C(N)=S)cc(OC)c1OC (stereo not drawn) [Compound 7, 3-(4-Bromophenyl)-5-(3,4,5-trimethoxyphenyl)-4,5-dihydro-1H-pyrazole-1-carbothioamide]	
11.9	41.3	CN(C)c1ccc(C2CC(c3ccc(O)cc3)=NN2C(N)=S)cc1 (stereo not drawn) [Compound 10, 5-(4-(Dimethylamino)phenyl)-3-(4-hydroxyphenyl)-4,5-dihydro-1H-pyrazole-1-carbothioamide]	IC50 [2]: 23.9 to 24.4 nM; selectivity ratio (SR) hCA I versus hCA II ([2]; hCA I versus hCA II): 3.46; melting point: 180 to 182 °C
